US20070191324A1, “Methods for treatment or prophylaxis of aldosterone-mediated pathogenic effects in a subject using an epoxy-steroidal aldosterone antagonist” (priority 1999, published 2007)
Read-outs that look alike come from different tables or passages of the source.

Experiments:
[1] = Single dose pharmacokinetics, Japan and Ex-Japan trials (Example A-11); assay type: in vivo, human; details: for Vd/F: male, human, in vivo, oral, single dose, least squares mean, read-out: Vss/F
Description: A total of 76 European subjects and 38 Japanese subjects participated in the single and multiple dose tolerability and food effect trials. Three of the studies were Ex-Japan studies and included doses ranging from 10 mg to 1000 mg. The other two studies were conducted in Japan and included doses ranging from 50 mg to 600 mg.
(§1) The […] trials included (i) a single dose tolerability trial, and (ii) a multiple dose tolerability trial, and (iii) a food effect study.
(§2) Both single dose and multiple dose tolerability trials were conducted in Japan utilizing healthy male Japanese subjects. […] Six subjects who received the 100 mg dose also participated in the food effect treatment arm of the single dose tolerability trial.
Combining single dose fasting pharmacokinetic data from all five studies, an analysis of variance with factors for country (Japan, Ex-Japan), study nested within country, and dose were performed on the dose-normalized Cmax and AUC values to assess the effect of country (population). Dose normalization was done to the lowest dose (10 mg for single dose, 100 mg for multiple dose). In the absence of intravenous data, the distribution volume (V/F) and clearance (CL/F) parameters are represented as the apparent values and are normalized to 70 kg of body weight. There were no statistically significant differences between the Japan and Ex-Japan trials in any of the pharmacokinetic parameters analyzed.
No statistically significant differences were noted between the Japan and ex-Japan population for any of the derived parameters evaluated.
(§3) Each panel consisted of six subjects who were given eplerenone and two subjects who were given placebo.

[2] = system: saline-loaded adrenalectomized rats treated with aldosterone; test: Subcutaneous vs. oral eplerenone in saline-loaded adrenalectomized rats treated with aldosterone (Example A-3); assay type: in vivo
Description: Urinary sodium, potassium and water excretion were measured. The results are expressed as the ratio of excreted urinary sodium to potassium (Na/K)±SEM.

[3] = Food effect pharmacokinetic studies, Japan and Ex-Japan (Example A-11); assay type: in vivo, human; details: single 100 mg; for AUC(0-inf) / Cmax / AUC: male, human, in vivo, oral, 100 mg; for AUC: read-out: AUC (0-lqc)
Description: as §1, §2
Table A-11C contains the geometric least squares means for the fed and fasting regimens, the ratios of means and the corresponding 95% confidence intervals (CI) for the ratios of the means for the Japan and Ex-Japan food effect trials.
as §3

[4] = system: older patients with systolic hypertension and/or widened pulse pressure; test: Eplerenone versus amlodipine in systolic hypertension in older people, 24 weeks (Examples A-19, D-8); assay type: in vivo, human
Text: At Week 10 or thereafter, if SBP is =170 mmHg on two consecutive visits, one to three days apart, and the patient is on the maximum dose of study drug, he/she must be withdrawn. Patients will receive double-blind study medication for a total of 24 weeks. Table A-19A illustrates the above-described dosing scheme.
Heart rate, BP, serum potassium levels, concomitant medications and adverse events will be assessed at each visit. […] Special studies: collagen markers [aminoterminal propeptide of type III procollagen (PIIINP), 7S domain of type IV collagen (7SIVC), and type I collagen telopeptide (ICTP)], plasma […] (PAI-1), tissue plasminogen activator (t-PA), microalbuminuria, and at selected sites, Ambulatory Blood Pressure Monitoring (ABPM) and arterial compliance will be done at Weeks 0, 14, and 24 or at Final Visit. Quality of Life Questionnaires will be done at visit 2A (beginning of single blind) and Weeks 0, 14, and 24 or at Final Visit. DNA genotyping will be performed at baseline.
In older patients, elevated systolic BP and wide pulse pressure predict cardiovascular risk better than diastolic BP. Reduced vascular compliance and intraglomerular hypertension typically accompany isolated systolic hypertension in older people.
Changes in arterial compliance, measured by pulse-wave velocity, microalbuminuria, and adverse effects (AEs) were assessed at baseline and after 24 weeks of therapy.

[5] = system: diabetic type 2 patients with hypertension and microalbuminuria; test: Eplerenone, enalapril and combination in diabetic hypertensives with microalbuminuria, 24 weeks (Examples A-18, D-7); assay type: in vivo, human
[6] = system: patients with mild-to-moderate hypertension; test: Long-term open-label safety and efficacy study of eplerenone (Example D-11); assay type: in vivo, human; design: mean change from baseline SBP: unit not given beside the values; details: for Change Mean seated DBP, Baseline to End of Treatment / Change Mean seated SBP, Baseline to End of Treatment: Responders, ITT
Description: This 6- to 16-month, open-label, single-group, titration-to-effect study assessed the safety, tolerability, and efficacy of EPL in patients with mild-to-moderate hypertension.
Patients (n=586) with DBP ≧90 mmHg and <110 mmHg, or SBP ≧140 mmHg and <180 mmHg, received EPL 50 mg QD. If BP was uncontrolled at Weeks 2 or 4 (DBP ≧90 mmHg or SBP ≧140 mmHg), EPL was up-titrated to 100 mg QD and, if necessary, 200 mg QD. If BP remained uncontrolled at any time from Week 6 to the end of Month 3, a second antihypertensive medication of the investigator's choice was added. Safety, tolerability, and BP were assessed at protocol-specified times.

[7] = after 24 weeks, titration-to-effect
[8] = EPL 200 mg plus add-on therapy (N=172)
[9] = subgroup 50, 100, 200 mg QD + Ahyp (add-on therapy)
[10] = final dose level EPL 50 mg (N=68)
[11] = final dose level EPL 100 mg (N=89)
[12] = final dose level EPL 200 mg (N=104)

COC(=O)[C@@H]1CC2=CC(=O)CC[C@]2(C)[C@@]23O[C@@H]2C[C@@]2(C)[C@@H](CC[C@@]24CCC(=O)O4)[C@H]13 [Eplerenone, Pregn-4-ene-7,21-dicarboxylic acid, 9,11-epoxy-17-hydroxy-3-oxo-, γ-lactone, methyl ester, (7α, 11α, 17β)-]
clinical lab abnormalities and adverse events ([1]; healthy Japanese male subjects, single doses 50-600 mg): no adverse events were reported
Vd/F ([1]; Ex-Japan): 80.6 L
Vd/F ([1]; Japan): 80.1 L
Mean Na/K ([2]; Table A-3A, aldosterone + antagonist 10 mg/100 g rat): 2.17
Mean Na/K ([2]; Table A-3A, aldosterone + antagonist 30 mg/100 g rat): 2.98
Mean Na/K ([2]; Table A-3A, aldosterone + antagonist 100 mg/100 g rat): 3.44
Mean Na/K ([2]; Table A-3B, aldosterone + antagonist 3 mg/100 g rat): 0.90
Mean Na/K ([2]; Table A-3B, aldosterone + antagonist 10 mg/100 g rat): 1.34
Mean Na/K ([2]; Table A-3B, aldosterone + antagonist 30 mg/100 g rat): 1.18
Mean Na/K ([2]; Table A-3B, aldosterone + antagonist 100 mg/100 g rat): 2.10
Mean Na/K ([2]; Table A-3B, aldosterone + antagonist 300 mg/100 g rat): 4.79
Mean Na/K ([2]; Table A-3B, aldosterone + antagonist 1000 mg/100 g rat): 5.70
efficacy of subcutaneous injection versus oral administration ([2]; antagonism of aldosterone-mediated renal effects): Subcutaneous injection provided better efficacy than oral administration
AUC (0-inf) Mean Ratio fed/fasted ([3]; Ex-Japan): 1.079
AUC (0-inf) Mean Ratio fed/fasted ([3]; Japan): 1.218
AUC(0-inf) ([3]; Ex-Japan, Fasted): 9060 ng·h/mL
Cmax ([3]; Ex-Japan, Fasted): 1620 ng/mL
AUC ([3]; Ex-Japan, Fasted): 8940 ng·h/mL
AUC(0-inf) ([3]; Ex-Japan, Fed): 9780 ng·h/mL
Cmax ([3]; Ex-Japan, Fed (high fat meal)): 1320 ng/mL
AUC ([3]; Ex-Japan, Fed): 9650 ng·h/mL
AUC(0-inf) ([3]; Japan, Fasted): 8970 ng·h/mL
Cmax ([3]; Japan, Fasted): 1310 ng/mL
AUC(0-inf) ([3]; Japan, Fed): 10900 ng·h/mL
Cmax ([3]; Japan, Fed): 1520 ng/mL
Edema rates (%) ([4]; 24-week study): 3.7%
peripheral edema frequency ([4]; 24 weeks): 3.7%
reduction in pulse pressure ([4]; 24 weeks): −15.9 mmHg
symptoms with significant and clinically meaningful worsening in distress from Baseline (QoL) ([4]; 24 weeks): no worsening in distress
reduction in SBP ([4]; 24 weeks, EPL 50-200 mg QD, AML 2.5-10 mg QD): −20.5 mmHg
Pulse Pressure (change) [4, 7]: −15.9 ± 0.96 mmHg
Systolic BP (change) [4, 7]: −20.5 ± 1.14 mmHg
safety and tolerability ([4]; in vivo): safe and well tolerated
Δ microalbuminuria (%) ([4]; only for patients with baseline microalbuminuria (>30 mg/g), 24 weeks): −52.3%
reduction in UACR ([4]; patients with baseline microalbuminuria (>30 mg/g)): −27.1%
patients withdrawn for hyperkalemia ([5]; 24 weeks): 6 patients
reduction in microalbuminuria (UACR) ([5]; 24 weeks): greater reduction in microalbuminuria than enalapril
subjects with elevated K+ (≧6.0 mEq/L) ([5]; 24 weeks): 8 subjects
patients requiring addition of hydrochlorothiazide (HCTZ) ([5]; EPL 200 mg QD, ENAL 40 mg QD, EPL 200 mg/ENAL 10 mg, 24 weeks): 36/84
Adjusted mean change ΔDBP (Week 8-baseline) ([5]; Week 8): −10.2
Adjusted mean change ΔSBP (Week 8-baseline) ([5]; Week 8): −13.5
Adjusted mean change ΔDBP (Week 24-baseline) ([5]; Week 24): −13.2
Adjusted mean change ΔSBP (Week 24-baseline) ([5]; Week 24): −19.5
tolerability ([5]; in vivo): well tolerated
patients responding to eplerenone monotherapy ([6]; 261/582): 44.8%
mean change from baseline DBP [6, 8]: −14.6
mean change from baseline SBP [6, 8]: −24.9
Change Mean seated DBP, Baseline to End of Treatment ([6]; subgroup 50 mg QD): −10.6 mmHg
Change Mean seated SBP, Baseline to End of Treatment ([6]; subgroup 50 mg QD): −15.9 mmHg
Change Mean seated DBP, Baseline to End of Treatment ([6]; subgroup 50, 100 mg QD): −12.2 mmHg
Change Mean seated SBP, Baseline to End of Treatment ([6]; subgroup 50, 100 mg QD): −18.1 mmHg
Change Mean seated DBP, Baseline to End of Treatment ([6]; subgroup 50, 100, 200 mg QD): −12.5 mmHg
Change Mean seated SBP, Baseline to End of Treatment ([6]; subgroup 50, 100, 200 mg QD): −19.1 mmHg
Change Mean seated DBP, Baseline to End of Treatment [6, 9]: −14.6 mmHg
Change Mean seated SBP, Baseline to End of Treatment [6, 9]: −24.9 mmHg
gynecomastia ([6]; doses of 50, 100, and 200 mg): 0.7%
mean change from baseline DBP [6, 10]: −10.6
mean change from baseline SBP [6, 10]: −15.9
mean change from baseline DBP [6, 11]: −12.2
mean change from baseline SBP [6, 11]: −18.1
mean change from baseline DBP [6, 12]: −12.5
mean change from baseline SBP [6, 12]: −19.1
patients with treatment-emergent AEs of probable relationship to study medication ([6]; in vivo): 8.4%
patients with treatment-emergent AEs of uncertain relationship to study medication ([6]; in vivo): 21.5%
responders at the end of treatment, number ([6]; of 582 patients): 433 patients
responders (seDBP<90 mmHg or ≧10 mmHg decrease from Baseline) at the end of treatment ([6]; of 582 patients, EPL 50-200 mg QD with or without add-on): 74.3%
patients with elevated K+ levels ([6]; primarily those receiving EPL 200 mg): 2.4%
safety and tolerability ([6]; up to 14 months, 50-200 mg daily alone or 200 mg/day with another antihypertensive agent): safe and well tolerated
